The structures appear in SMILES notation.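 Growth conditions: 96-well plates. Treatment: test compound, 48 hours, 5 concentrations. Analysis: linear interpolation between bracketing concentrations; unreached endpoints set to highest concentration. At the TGI there is no net growth.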 Where a SMILES comes first, the peptide text is derived from it. [ ]: non-standard residue; d: D form. The star is where a group is joined. X28 = COC1=CC(=O)N(C(=O)[C@@H](O*)C(C)C)[C@H]1Cc1ccccc1; NMeV = CN[C@H](C(=O)O)C(C)C; Hexanoyl = CCCCCC(=O)*

Some test systems named below: CAKI-1 renal; SK-MEL-28 melanoma; HCT-116 colon; RPMI-8226 leukemia; OVCAR-5 ovarian; NCI-H23 lung; SF-268 CNS; SN12C renal; CCRF-CEM leukemia; ACHN renal; SR leukemia; NCI/ADR-RES ovarian; OVCAR-3 ovarian; HOP-92 NSCLC; MDA-MB-231 breast; NCI-H460 lung; MDA-MB-435; SK-MEL-2 melanoma; HL-60(TB) leukemia.
Common to all, as to experiment: growth of human tumour cells (NCI), 48 h

As to `O=C(Cc1ccccc1)NNc1nc(NNC(=O)c2ccncc2)nc(Nc2ccc([N+](=O)[O-])cc2)n1`, the TGI with CAKI-1 renal, with SK-MEL-28 melanoma, with HCT-116 colon, in the assay with RPMI-8226 leukemia, in the assay on OVCAR-5 ovarian and in the assay on NCI-H23 lung was greater than 10 µM each time. The TGI with SF-268 CNS, in the assay on SN12C renal, with CCRF-CEM leukemia, in the assay with ACHN renal, in the assay with SR leukemia and in the assay with NCI/ADR-RES ovarian was greater than 10 µM each time. Besides, the TGI in the assay with OVCAR-3 ovarian, in the assay with HOP-92 NSCLC, in the assay with MDA-MB-231 breast, with NCI-H460 lung and with MDA-MB-435 was greater than 10 µM each time.

Take `N#CC12C(=O)N3C(=NC(c4ccccc4)NC3c3ccccc3)C1(C#N)C(c1ccccc1)NC1=C2CCC1` (stereo unspecified): the TGI in the assay with CAKI-1 renal, with SK-MEL-28 melanoma, in the assay with HCT-116 colon, with RPMI-8226 leukemia, with OVCAR-5 ovarian and in the assay with NCI-H23 lung was greater than 100 µM each time. Also, the TGI in the assay with SF-268 CNS, in the assay on SN12C renal, in the assay on CCRF-CEM leukemia, with SK-MEL-2 melanoma, with ACHN renal and in the assay on HL-60(TB) leukemia was greater than 100 µM in each case. Besides, the TGI with NCI/ADR-RES ovarian, in the assay with OVCAR-3 ovarian, in the assay with HOP-92 NSCLC, in the assay with MDA-MB-231 breast, in the assay with NCI-H460 lung and in the assay with MDA-MB-435 was greater than 100 µM throughout.

`CCCCCC(=O)N[C@H](C(=O)N[C@H](C(=O)N(C)[C@H](C(=O)N1CCC[C@H]1C(=O)N1CCC[C@H]1C(=O)O[C@H](C(=O)N1C(=O)C=C(OC)[C@@H]1Cc1ccccc1)C(C)C)C(C)C)C(C)C)C(C)C` (Hexanoyl-VV[NMeV]PP-X28): the TGI in the assay with CAKI-1 renal, with SK-MEL-28 melanoma, in the assay on HCT-116 colon, with RPMI-8226 leukemia, in the assay on OVCAR-5 ovarian and with NCI-H23 lung was greater than 100 µM in each case. Besides, the TGI with SF-268 CNS, in the assay with SN12C renal, in the assay with CCRF-CEM leukemia, with SK-MEL-2 melanoma, in the assay on ACHN renal and in the assay with HL-60(TB) leukemia was greater than 100 µM each time. Further, the TGI in the assay with NCI/ADR-RES ovarian, with OVCAR-3 ovarian, in the assay on HOP-92 NSCLC, in the assay on MDA-MB-231 breast, with NCI-H460 lung and in the assay on MDA-MB-435 was greater than 100 µM each time.

In the case of `NC(=O)N/N=C1\CCCCc2ccccc21`, the TGI in the assay on CAKI-1 renal, in the assay with HCT-116 colon, in the assay with RPMI-8226 leukemia, with OVCAR-5 ovarian, in the assay with NCI-H23 lung and with SF-268 CNS was greater than 10 µM each time. Also, the TGI in the assay with SN12C renal, in the assay on CCRF-CEM leukemia, in the assay on SK-MEL-2 melanoma, in the assay on ACHN renal, in the assay with SR leukemia and in the assay with NCI/ADR-RES ovarian was greater than 10 µM each time. Further, the TGI with OVCAR-3 ovarian, in the assay on HOP-92 NSCLC, in the assay on MDA-MB-231 breast, in the assay on NCI-H460 lung and in the assay on MDA-MB-435 was greater than 10 µM in each case.

Take `COc1ccc2c(C)cc(N/N=C(\C)C=O)nc2c1`: the TGI in the assay with CAKI-1 renal turned out to be 27.8 µM; with SK-MEL-28 melanoma, 32.4 µM; in the assay with HCT-116 colon, 26.5 µM; with RPMI-8226 leukemia, 22.9 µM; in the assay with OVCAR-5 ovarian, 28.2 µM; in the assay with NCI-H23 lung, 24.8 µM. Besides, the TGI in the assay with SF-268 CNS amounted to 41.1 µM; with SN12C renal, 26.8 µM; in the assay with CCRF-CEM leukemia, 4 µM; in the assay on SK-MEL-2 melanoma it was 33.1 µM; in the assay with ACHN renal, 29.7 µM; with SR leukemia it was 3.79 µM. The TGI in the assay on NCI/ADR-RES ovarian was 25.7 µM; in the assay on OVCAR-3 ovarian it was 7.59 µM; in the assay with HOP-92 NSCLC, 25.1 µM; in the assay on MDA-MB-231 breast, 24 µM; in the assay on NCI-H460 lung, 24.9 µM; in the assay on MDA-MB-435 it was 25.5 µM.

Take `C[n+]1c2ccccc2c(C(=O)Nc2ccc(S(=O)(=O)Nc3ccnn3-c3ccccc3)cc2)c2ccccc21`: the TGI in the assay with CAKI-1 renal, in the assay with SK-MEL-28 melanoma, with HCT-116 colon, in the assay on RPMI-8226 leukemia, in the assay with OVCAR-5 ovarian and with NCI-H23 lung was greater than 100 µM in each case. The TGI in the assay with SF-268 CNS, in the assay on SN12C renal, in the assay with SK-MEL-2 melanoma, in the assay with ACHN renal, in the assay on SR leukemia and in the assay on NCI/ADR-RES ovarian was greater than 100 µM in each case. Further, the TGI in the assay on OVCAR-3 ovarian, in the assay with MDA-MB-231 breast, with NCI-H460 lung and in the assay on MDA-MB-435 was greater than 100 µM in each case.

For the molecule `C/C(=N/NC(=S)Nc1ccc([N+](=O)[O-])cc1)c1cccc(/C(C)=N\NC(=S)Nc2ccc([N+](=O)[O-])cc2)n1`, the TGI in the assay with CAKI-1 renal was 8.06 µM; in the assay on SK-MEL-28 melanoma, greater than 100 µM; with HCT-116 colon, 12.2 µM; in the assay on RPMI-8226 leukemia, 8.8 µM; with OVCAR-5 ovarian it was 21.7 µM; with NCI-H23 lung, 12.2 µM. Besides, the TGI is greater than 100 µM in the assay with SF-268 CNS; 14.4 µM with SN12C renal; greater than 55.8 µM in the assay on CCRF-CEM leukemia; 23.6 µM in the assay with SK-MEL-2 melanoma; 1.14 µM in the assay on ACHN renal; 2.33 µM with SR leukemia. For the same molecule, the TGI in the assay with NCI/ADR-RES ovarian is greater than 29.9 µM; in the assay with HOP-92 NSCLC it was 11.6 µM; in the assay with MDA-MB-231 breast, 17.7 µM; in the assay on NCI-H460 lung, 9.11 µM; in the assay on MDA-MB-435 it was greater than 38.7 µM.

(Values after PubChem BioAssay (NCI).)
